# Measurements taken from patent publication US20150164916A1, “ROFLUMILAST COMPOSITIONS FOR THE TREATMENT OF COPD” (Forest Laboratories Holdings Ltd., priority 2012, published 2015).
# Key:
# p-ERK1/2 = experiment: Western blot of ERK1/2 phosphorylation in CSE-stimulated neutrophils from COPD patients; assay type: cell-based, human; conditions: RNO 1 nM and 1 μM, DEX 1 μM, RNO 1 nM plus DEX 1 μM, NAC 1 mM for 1 h, then CSE 5% 20 min
# Protocol: (§1) Neutrophils and monocytes were isolated from peripheral venous blood by standard laboratory procedures. In brief, peripheral venous blood was mixed with dextran 500 at 3% (in 0.9% saline) in a proportion of 2:1. This mixture was incubated at room temperature for 30 min until erythrocytes were sedimented. The upper phase was carefully collected and added on Ficoll-Paque Histopaque 1077 (Amershan Pharmacia Biotech, Barcelona, Spain) density gradient in a proportion of 3:1. The two phases generated were centrifuged at 150 g, 4° C. for 30 min. […]
# (§2) CSE was prepared as previously outlined (Milara et al.; Ortiz et al.). […] The quality of the prepared CSE solution was assessed based on the absorbance at 320 nm, which is the specific absorption wavelength of peroxynitrite. Stock solutions with an absorbance value of 3.0±0.1 were used. […]
# Western blot analysis was used to detect changes in p-ERK1/2 (42-44 kD). […] Cells were then centrifuged and the total protein was extracted using a lysis buffer consisting of a complete inhibitor cocktail plus 1 mM ethylenediaminetetraacectic acid (Roche Diagnostics Ltd, West Sussex, UK) with 20 mM Tris base, 0.9% NaCl, 0.1% Triton X-100, 1 mM dithiothreitol and 1 μg mL^−1 pepstatin A. The Bio-Rad assay (Bio-Rad Laboratories Ltd., Herts, UK) was used (following manufacturer's instructions) to quantify the level of protein in each sample to ensure equal protein loading. […]
# GCβ = experiment: Real time RT-PCR of GCβ mRNA in CSE-stimulated neutrophils from COPD patients; assay type: cell-based, human; conditions: RNO 1 nM and 1 μM, DEX 1 μM, RNO 1 nM plus DEX 1 μM, NAC 1 mM, CSE 5%
# Protocol: as §1, §2
# Total RNA was obtained from isolated neutrophils under basal conditions or after different drug and stimulation periods defined above by using TriPure® Isolation Reagent (Roche, Indianapolis, USA). […] Relative quantification of these transcripts was determined with the 2^−ΔΔCt method using glyceraldehyde phosphate dehydrogenase (GAPDH) as endogenous control (Applied Biosystems; 4352339E) and normalized to control group as previously described (Milara et al., 2009).
# Then, mRNA was isolated and quantified for different genes.
smiles,measurement,setting,value
"O=C(Nc1c(Cl)c[n+]([O-])cc1Cl)c1ccc(OC(F)F)c(OCC2CC2)c1 [RNO, roflumilast N-oxide]",effect on CSE-induced phosphorylation of ERK1/2,p-ERK1/2,effectively inhibited
same,effect on CSE-induced GCβ upregulation,GCβ,inhibited
